Experimental data as given in PMC10647531, “Effects of Icariin and Its Metabolites on GPCR Regulation and MK-801-Induced Schizophrenia-Like Behaviors in Mice” (Molecules, 2023).

Assays:
[1] = system: MK-801-treated mice; test: Acoustic startle response task (ASRT), prepulse inhibition; assay type: in vivo
Experimental: (§1) The mice were housed in the University Animal Care Unit for one week prior to the experiment. Each cage housed 10 mice, and all mice had unlimited access to water and food. […] The Institutional Animal Care and Use Committee of Kyung Hee University approved the mouse experimental protocols (approval number: KHUASP-22-530).
The ASRT was conducted using SR-LAB startle chambers (San Diego Instruments, San Diego, CA, USA), consisting of a box that can lightly confine the mice, a system that can generate sound stimuli regularly, equipment that can measure animal movements, a program that can digitize the measured stimuli, and a source and speaker that can provide sound. The ASRT sessions included three trials: non-stimulus (PPI-1), startle (pulse alone, PPI-2), and prepulse (prepulse + pulse, PPI-3). The PPI-1 trial consisted of background noise only. The PPI-2 trial consisted of constant noise (80−120 dB, five sections) for 40 ms. The PPI-3 trial consisted of a noise prepulse ([…], which are 3, 6, 12, and 16 dB above the background noise, respectively) for 20 ms, a delay for 80 ms, and a 120 dB startle pulse for 40 ms. The percentage score for PPI was calculated as follows: % PPI = [(PPI-2 – PPI-3)/(PPI-2)] × 100(%).

[2] = biological target: T1, hMAO-B (Homo sapiens, UniProt P27338); test: In vitro hMAO-inhibitory assay (MAO-Glo), hMAO-B; assay type: biochemical; details: mean ± SD of triplicate experiments
T1 sequence (P27338 1-520): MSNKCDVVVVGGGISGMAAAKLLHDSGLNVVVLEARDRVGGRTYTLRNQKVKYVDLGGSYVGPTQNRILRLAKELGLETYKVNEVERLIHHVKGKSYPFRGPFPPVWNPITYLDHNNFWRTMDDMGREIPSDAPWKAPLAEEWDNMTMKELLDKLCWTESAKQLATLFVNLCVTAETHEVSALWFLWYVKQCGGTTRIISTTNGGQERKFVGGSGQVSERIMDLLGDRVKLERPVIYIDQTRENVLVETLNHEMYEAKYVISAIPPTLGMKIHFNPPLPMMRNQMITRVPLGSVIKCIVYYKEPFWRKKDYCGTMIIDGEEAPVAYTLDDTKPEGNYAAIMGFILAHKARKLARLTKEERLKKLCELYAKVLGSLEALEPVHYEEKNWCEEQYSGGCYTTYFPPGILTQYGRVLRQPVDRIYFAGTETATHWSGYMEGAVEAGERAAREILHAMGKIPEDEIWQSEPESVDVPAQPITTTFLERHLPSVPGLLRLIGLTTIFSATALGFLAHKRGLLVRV
Source text: (§2) A homogeneous luminescent assay using the MAO-Glo™ assay kit (Promega, Madison, WI, USA) was used to evaluate the hMAO-inhibitory activity of icariin and its metabolites according to the manufacturer’s protocol.

[3] = biological target: T2, hMAO-A (Homo sapiens, UniProt P21397); test: In vitro hMAO-inhibitory assay (MAO-Glo), hMAO-A; assay type: biochemical; details: mean ± SD of triplicate experiments
T2 sequence (P21397 1-527): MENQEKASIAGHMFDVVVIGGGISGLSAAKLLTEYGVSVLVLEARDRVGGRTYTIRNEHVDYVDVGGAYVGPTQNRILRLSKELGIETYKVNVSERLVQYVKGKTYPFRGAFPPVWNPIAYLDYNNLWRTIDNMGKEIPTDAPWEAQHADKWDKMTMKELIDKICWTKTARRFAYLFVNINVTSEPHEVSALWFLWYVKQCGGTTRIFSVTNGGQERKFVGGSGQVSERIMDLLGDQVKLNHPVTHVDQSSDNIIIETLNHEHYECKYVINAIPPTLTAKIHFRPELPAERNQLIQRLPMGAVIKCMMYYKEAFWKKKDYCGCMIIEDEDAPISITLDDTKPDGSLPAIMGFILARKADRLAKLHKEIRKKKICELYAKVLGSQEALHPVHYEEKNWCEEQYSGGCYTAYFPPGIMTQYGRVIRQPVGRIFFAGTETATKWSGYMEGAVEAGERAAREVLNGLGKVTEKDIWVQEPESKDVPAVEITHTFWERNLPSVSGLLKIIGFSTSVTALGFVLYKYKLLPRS
Source text: as §2

[4] = system: ferrous-treated rat brain homogenates; test: Lipid peroxidation assay (TBARS); assay type: biochemical; details: rat brain homogenate; mean ± SD of triplicate experiments
Experimental: Whole brain homogenates from male Sprague-Dawley rats (6 months old) were prepared according to procedures described in previous studies. […] After 1 h of incubation at 37 °C, the stop solution was added to the reaction mixture. After incubation in boiling water for 1 h, the reaction mixture was extracted with normal butanol and centrifuged (1300× g for 10 min).

[5] = system: MK-801-treated mice; test: Social novelty preference test (SNPT); assay type: in vivo
Source text: as §1
Three chambers in a rectangular Plexiglas box (w × d × h: 94 × 28 × 30 cm) were used for the SNPT. The left, right, and central chambers were all joined together by openings (w × d: 6 × 28 cm). On the center of the left and right chambers, an iron muntin cylinder lockup (h × d: 11 × 12 cm) was installed. A test mouse was allowed to interact with another mouse that was trapped in the cylinder lockup. A test mouse was placed in the middle chamber during the acclimatization trial (trial-1, 10 min) and was allowed to freely explore all three compartments through the apertures. A mouse that was younger than the test mouse was placed in a lockup in the first sociability experiment (trial-2) following trial-1, while the other lockup remained. The test mouse was taken to the center compartment and allowed to wander around. The second sociability trial (trial-3) was performed immediately after trial-2. A new mouse that was younger than the test mouse was put in the empty cell during trial-3 (10 min), and the test mouse was put into an empty lockup and allowed to explore.

[6] = biological target: T3, M4 mACh receptor (M4R) (Homo sapiens, UniProt P08173); test: cAMP agonist assay (M4R); details: 100 μM
T3 sequence (P08173 1-479): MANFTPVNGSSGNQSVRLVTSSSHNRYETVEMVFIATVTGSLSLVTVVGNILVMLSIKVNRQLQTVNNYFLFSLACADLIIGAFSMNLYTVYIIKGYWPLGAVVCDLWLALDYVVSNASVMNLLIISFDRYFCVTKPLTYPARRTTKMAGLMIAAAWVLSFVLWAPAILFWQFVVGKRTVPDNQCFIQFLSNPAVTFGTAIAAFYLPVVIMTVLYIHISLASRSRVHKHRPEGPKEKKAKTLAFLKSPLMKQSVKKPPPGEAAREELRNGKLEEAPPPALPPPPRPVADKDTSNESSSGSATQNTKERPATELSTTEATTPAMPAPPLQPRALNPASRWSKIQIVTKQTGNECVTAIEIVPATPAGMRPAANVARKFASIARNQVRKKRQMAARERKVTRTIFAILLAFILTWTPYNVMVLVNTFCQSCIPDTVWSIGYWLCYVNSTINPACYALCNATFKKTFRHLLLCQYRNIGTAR

[7] = biological target: T3, M4 mACh receptor (M4R); test: cAMP antagonist assay (M4R); details: read-out: Antagonist effect (%) M4 (inhibition of the control agonist response)
[8] = biological target: T4, muscarinic acetylcholine M2 receptor (M2R) (Homo sapiens, UniProt P08172); details: 100 μM; control agonist 300 nM ACh
T4 sequence (P08172 1-466): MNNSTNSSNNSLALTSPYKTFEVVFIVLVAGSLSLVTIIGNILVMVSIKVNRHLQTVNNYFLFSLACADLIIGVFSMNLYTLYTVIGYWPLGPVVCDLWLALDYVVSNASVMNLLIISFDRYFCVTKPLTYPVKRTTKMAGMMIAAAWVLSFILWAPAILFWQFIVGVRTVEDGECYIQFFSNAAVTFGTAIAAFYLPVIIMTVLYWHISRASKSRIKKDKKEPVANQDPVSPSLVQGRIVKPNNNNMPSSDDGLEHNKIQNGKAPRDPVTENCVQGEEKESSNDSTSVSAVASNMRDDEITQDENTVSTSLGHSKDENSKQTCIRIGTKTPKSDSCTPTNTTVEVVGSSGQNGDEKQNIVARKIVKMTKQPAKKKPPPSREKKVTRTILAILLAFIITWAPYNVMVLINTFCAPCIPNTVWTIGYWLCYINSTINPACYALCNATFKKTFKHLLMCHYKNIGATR

[9] = biological target: T4, muscarinic acetylcholine M2 receptor (M2R); test: Radioligand binding assay ([3H]AF-DX 384, CHO-M2R membrane homogenates); set-up: host or cells: CHO-K1
Experimental: (§3) Next, 10 μM (f.c.) (+)-butaclamol (for D3R) and 1 μM (f.c.) atropine (for M2R) were used to detect nonspecific binding in the respective assays. The binding affinity of a test compound was calculated as the inhibition (%) of control (radioligand)-specific binding.

[10] = set-up: method as in PMID 31844591; details: cited from earlier work
[11] = biological target: T5, Human D3R (Homo sapiens, UniProt P35462); assay type: binding; details: 50 μM
T5 construct: expressed in transfected cells; host or cells: CHO-K1 (membrane homogenates)
Experimental: as §3

[12] = biological target: T6, vasopressin 1A receptor (V1AR) (Homo sapiens, UniProt P37288); assay type: cell-based; details: 100 μM; stimulus AVP (10 nM)
T6 construct: host or cells: CHO-K1
Source text: a All products including cell-line and reagents were provided by Cerep (Cel le L'Evescault, France).

T5 sequence (P35462 whole entry): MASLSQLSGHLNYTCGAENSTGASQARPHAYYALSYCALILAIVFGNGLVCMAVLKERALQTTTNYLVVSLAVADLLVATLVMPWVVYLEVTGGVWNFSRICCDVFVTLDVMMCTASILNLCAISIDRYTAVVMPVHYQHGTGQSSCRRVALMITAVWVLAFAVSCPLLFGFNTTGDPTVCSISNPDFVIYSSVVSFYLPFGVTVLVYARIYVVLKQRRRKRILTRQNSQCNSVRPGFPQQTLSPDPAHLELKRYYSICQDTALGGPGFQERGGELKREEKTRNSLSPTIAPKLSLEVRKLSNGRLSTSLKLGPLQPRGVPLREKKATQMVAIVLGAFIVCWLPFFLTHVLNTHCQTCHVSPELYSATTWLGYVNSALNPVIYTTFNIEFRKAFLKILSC
T6 sequence (P37288 whole entry): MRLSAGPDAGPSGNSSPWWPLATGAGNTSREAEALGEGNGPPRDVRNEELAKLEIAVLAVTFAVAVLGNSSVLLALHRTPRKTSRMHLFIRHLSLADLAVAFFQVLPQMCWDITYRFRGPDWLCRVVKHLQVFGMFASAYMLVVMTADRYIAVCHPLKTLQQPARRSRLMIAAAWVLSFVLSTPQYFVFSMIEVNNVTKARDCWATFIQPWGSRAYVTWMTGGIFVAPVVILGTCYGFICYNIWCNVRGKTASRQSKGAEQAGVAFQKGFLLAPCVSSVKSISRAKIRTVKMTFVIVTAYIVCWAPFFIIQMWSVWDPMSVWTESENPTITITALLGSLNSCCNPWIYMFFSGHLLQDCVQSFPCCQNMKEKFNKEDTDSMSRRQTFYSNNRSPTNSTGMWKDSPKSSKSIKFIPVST

COc1ccc(-c2oc3c(CC=C(C)C)c(O[C@@H]4O[C@H](CO)[C@@H](O)[C@H](O)[C@H]4O)cc(O)c3c(=O)c2O[C@@H]2O[C@@H](C)[C@H](O)[C@@H](O)[C@H]2O)cc1 [Icariin, icariin]
effect on MK-801-induced PPI deficits ([1]; 3 and 10 mg/kg, p.o., at +12 and +16 dB above the background noise): significantly reversed | IC50 [2]: > 500 µM | IC50 [3]: 422 ± 7.07 µM | IC50 [4]: 301 ± 2.16 µM | effect on MK-801-induced social interaction deficits ([5]; 3 and 10 mg/kg, p.o.): significantly reversed | agonist effect assay on M4R [6]: opposite effect to that of icariside II

COc1ccc(-c2oc3c(CC=C(C)C)c(O)cc(O)c3c(=O)c2O)cc1 [Icaritin, icaritin]
inhibition at 100 µM [7]: 32.4% | effect on MK-801-induced PPI deficits ([1]; 1, 3, and 10 mg/kg, p.o.): no significant effects | IC50 [2]: > 500 µM | IC50 [3]: > 500 µM | IC50 [4]: 81.3 ± 3.09 µM | effect on MK-801-induced social interaction deficits ([5]; 3 and 10 mg/kg, p.o.): significantly reversed | Antagonist effect (%) M2 [8]: 54.55% | Radioligand specific binding (%) (M2R) ([9]; 100 μM): 81.95% | Radioligand specific binding (%) (M2R) ([9]; 150 μM): 64.00% | blocked radioligand binding to the target binding site (M2R) ([9]; 150 μM): 36% | blood-brain barrier penetration [10]: could penetrate the blood-brain barrier (BBB) readily

C[C@]12N[C@H](Cc3ccccc31)c1ccccc12 [MK-801]
acoustic startle amplitude ([1]; 0.2 mg/kg alone (i.p.), at 120 dB): significantly increased | prepulse inhibition (PPI) ([1]; 0.2 mg/kg alone (i.p.), at +3, +6, +12, and +16 dB above the background noise (70 dB)): decreased | amount of time spent in the chamber with the unknown mouse ([5]; alone, 0.2 mg/kg, i.p., compared with control group): considerably reduced

Cc1c(C)c2c(c(C)c1O)CCC(C)(C(=O)O)O2 (centres unmarked) [Trolox, reference compound]
IC50 [4]: 32.3 ± 3.21 µM

O=C1CCc2ccc(OCCCCN3CCN(c4cccc(Cl)c4Cl)CC3)cc2N1 [aripiprazole, reference compound]
effect on MK-801-induced PPI deficits ([1]; 1 mg/kg, i.p., at +12 and +16 dB above the background noise): significantly reversed | effect on MK-801-induced social interaction deficits ([5]; 1 mg/kg, i.p.): significantly reversed

icariside II
effect on MK-801-induced PPI deficits ([1]; 1, 3, and 10 mg/kg, p.o.): no significant effects | radioligand binding to the target binding site (D3R) [11]: almost completely blocked | antagonist effect on V1AR [12]: 42.0% | IC50 [4]: 70.4 ± 2.04 µM | effect on MK-801-induced social interaction deficits ([5]; 1, 3, and 10 mg/kg, p.o.): significantly reversed | agonist effect assay on M4R [6]: has an agonist effect
